Laboratory results: PubChem BioAssay (NCI)
Several values for one entry are separate records, joined by “and”; a condition that tells them apart may be missing. Equal values may be shown once.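 These data come from cells grown in 96-well plates and exposed to compound for 48 hours at five concentrations. Abbreviation: GI50, concentration required for 50% inhibition of growth. The concentration for full growth arrest is given as TGI.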

The compounds below were run on HT29 colon (assay: NCI anticancer screen, dose series, 48 h).

Row | Structure (SMILES) | GI50 | TGI [µM]
1 | CCC(=C/[C@H](C)C/C=C/C(C)=C/[C@@H](C)C(=O)[C@@H](C)[C@H](O)[C@@H](C)CC)/C=C/[C@H]1OC(=O)C=C[C@@H]1C | < 0.01 µM | 1.15
2 | COc1ccc(OC)c(N2CC(N)C2=O)c1 (stereo not given) |  | > 100
3 | Nc1ccccc1SC(CC(=O)c1ccccc1)c1cccc([N+](=O)[O-])c1 (stereo not given) | 5.79 µM | 23
4 | O=C1CCCCN1c1ccccc1C#C/C=C\C#Cc1ccccc1C(F)(F)F | 0.97 µM | 2.63
5 | O=C(/C=C/c1ccc([N+](=O)[O-])cc1)c1ccc(NCc2nc3ccccc3[nH]2)cc1 |  | 12.3
6 | CN1CC[C@@H](NC(=O)Nc2ccc(C#N)cc2)C[C@@H]1c1nc2ccccc2[nH]1 | > 74.2 µM | > 100
7 | CN(C)CC1CC/C(=C\c2ccc(O)cc2)C1=O (stereo not given) |  | 11.5
8 | O=c1ccc2ccccc2cc1[O-].O=c1ccc2ccccc2cc1[O-].[O]=[U+2]=[O] | 2.51 µM | 6.97
9 | Cc1ccc(-n2c3nc(=O)[nH]c(=O)c-3cc3cc([N+](=O)[O-])ccc32)cc1 | 12 µM | 37.2
10 | O=C1NC(=NC(CO)Cc2ccccc2)S/C1=C\c1ccc2ncccc2c1 (stereo not given) | 16.2 µM and 4.74 µM | > 25
11 | COC(=O)C(CCCN1C(=O)c2ccccc2C1=O)C(=O)OC |  | > 100
12 | COc1cc(/C(C#N)=C/c2nc3c(N4CCOCC4)nc(Cl)nc3n2C)cc(OC)c1OC | < 0.01 µM | 3.42
13 | Cc1nnc(NC(=O)c2nc(S(=O)(=O)Cc3ccc(F)cc3)ncc2Cl)s1 | 2.34 µM | 5.8
14 | CC(C)[C@@H]1C=C2CC[C@H]3[C@](C)(CN)CCC[C@]3(C)[C@H]2CC1 | 1.84 µM | 3.64

These compounds were tested on SN12C renal (assay: NCI anticancer screen, dose series, 48 h).

Row | Structure (SMILES) | GI50 | TGI
15 | CC1(COc2ccc3c(c2)ncn3-c2ccc3cccc(N4CCC(N)CC4)c3n2)COC1 | 0.945 µM and 1.12 µM | 15.3 µM and > 10 µM
16 | O=C(/C=C/c1ccc(O)cc1)c1ccc(O)cc1 |  | 79 µM
17 | S=c1sc2c(n1-c1ccccc1)NC=NC2S (stereo not given) |  | > 100 µM
18 | CCOC(=O)C1=C(C)N(c2ccc(F)cc2F)[C@]2(C#N)C(O)=C(Cl)C(Cl)=C(O)[C@]12C#N | > 100 µM | > 100 µM
19 | Cc1csc(-c2nnc(Nc3ccc(Oc4ncccc4-c4ccnc(N)n4)cc3)c3ccccc23)c1 | 2.54 µM | > 100 µM
20 | CCCCCCCCCCn1cc[n+](C)c1 | 2.54 µM | 9.71 µM
21 | O=C(CCCSc1nc(-c2ccccc2)cc(-c2ccccc2)n1)NO | 1.94 µM | 9.1 µM
22 | c1ccc(NCn2cnc3ccccc32)cc1 |  | > 100 µM
23 | CC1SC(c2ccc(F)cc2)N(NC(=O)C(O)c2ccccc2)C1=O (stereo not given) | > 100 µM | > 100 µM
24 | N#C/C(=C\c1cccc(Cl)c1Cl)c1ccccc1 |  | > 100 µM
25 | COCCOc1ccc(-c2nc3ccc(-c4nc5ccc(N6CCN(C)CC6)cc5[nH]4)cc3[nH]2)cc1 | 1.42 µM | 11.8 µM
26 | Nc1n[nH]c2cccc(C#Cc3cccc(C(=O)Nc4ccc(CN5CCOCC5)c(C(F)(F)F)c4)c3)c12 | 2.48 µM | 9.48 µM
27 | COc1ccc(-c2cn[nH]c2-c2cc(OC)c(OC)c(OC)c2)cc1 | 0.193 µM | 47.3 µM
28 | N[C@@H]1CCCC[C@@H]1N.O=P([O-])([O-])CN(CCN(CP(=O)([O-])[O-])CP(=O)([O-])[O-])CP(=O)([O-])[O-].[Pt+2] | > 25 µM | > 25 µM
29 | CCC(=C/[C@H](C)C/C=C/C(C)=C/[C@@H](C)C(=O)[C@@H](C)[C@H](O)[C@@H](C)CC)/C=C/[C@H]1OC(=O)C=C[C@@H]1C | < 0.01 µM | 1.27 µM
30 | COc1ccc(OC)c(N2CC(N)C2=O)c1 (stereo not given) |  | > 100 µM
31 | Nc1ccccc1SC(CC(=O)c1ccccc1)c1cccc([N+](=O)[O-])c1 (stereo not given) | 13.9 µM | 26.9 µM
32 | O=C1CCCCN1c1ccccc1C#C/C=C\C#Cc1ccccc1C(F)(F)F | 1.59 µM | 3.67 µM
33 | O=C(/C=C/c1ccc([N+](=O)[O-])cc1)c1ccc(NCc2nc3ccccc3[nH]2)cc1 |  | 14.8 µM
34 | CN1CC[C@@H](NC(=O)Nc2ccc(C#N)cc2)C[C@@H]1c1nc2ccccc2[nH]1 | > 78.9 µM | > 100 µM
35 | CN(C)CC1CC/C(=C\c2ccc(O)cc2)C1=O (stereo not given) |  | 14 µM
36 | O=c1ccc2ccccc2cc1[O-].O=c1ccc2ccccc2cc1[O-].[O]=[U+2]=[O] | 23.5 µM | 64.1 µM
37 | Cc1ccc(-n2c3nc(=O)[nH]c(=O)c-3cc3cc([N+](=O)[O-])ccc32)cc1 | 20.6 µM | 56.5 µM
38 | O=C1NC(=NC(CO)Cc2ccccc2)S/C1=C\c1ccc2ncccc2c1 (stereo not given) | 14.9 µM and 3.46 µM | > 25 µM
39 | COC(=O)C(CCCN1C(=O)c2ccccc2C1=O)C(=O)OC |  | > 100 µM
40 | COc1cc(/C(C#N)=C/c2nc3c(N4CCOCC4)nc(Cl)nc3n2C)cc(OC)c1OC | < 0.01 µM | 22.1 µM
41 | Cc1nnc(NC(=O)c2nc(S(=O)(=O)Cc3ccc(F)cc3)ncc2Cl)s1 | 2.39 µM | 6.56 µM
42 | CC(C)[C@@H]1C=C2CC[C@H]3[C@](C)(CN)CCC[C@]3(C)[C@H]2CC1 | 3.42 µM | 14 µM

What follows are compounds tested on SK-MEL-5 melanoma (assay: NCI anticancer screen, dose series, 48 h).

Row | Structure (SMILES) | GI50 | TGI
43 | CC1(COc2ccc3c(c2)ncn3-c2ccc3cccc(N4CCC(N)CC4)c3n2)COC1 | 2.31 µM and 2.12 µM | 6.7 µM and 5.22 µM
44 | O=C(/C=C/c1ccc(O)cc1)c1ccc(O)cc1 |  | 44.2 µM
45 | S=c1sc2c(n1-c1ccccc1)NC=NC2S (stereo not given) |  | > 100 µM
46 | CCOC(=O)C1=C(C)N(c2ccc(F)cc2F)[C@]2(C#N)C(O)=C(Cl)C(Cl)=C(O)[C@]12C#N | > 100 µM | > 100 µM
47 | Cc1csc(-c2nnc(Nc3ccc(Oc4ncccc4-c4ccnc(N)n4)cc3)c3ccccc23)c1 | 71.5 µM | > 100 µM
48 | CCCCCCCCCCn1cc[n+](C)c1 | 1.17 µM | 2.79 µM
49 | O=C(CCCSc1nc(-c2ccccc2)cc(-c2ccccc2)n1)NO | 1.41 µM | 3.17 µM
50 | c1ccc(NCn2cnc3ccccc32)cc1 |  | > 100 µM
51 | CC1SC(c2ccc(F)cc2)N(NC(=O)C(O)c2ccccc2)C1=O (stereo not given) | > 100 µM | > 100 µM
52 | N#C/C(=C\c1cccc(Cl)c1Cl)c1ccccc1 |  | > 100 µM
53 | COCCOc1ccc(-c2nc3ccc(-c4nc5ccc(N6CCN(C)CC6)cc5[nH]4)cc3[nH]2)cc1 | 0.351 µM | 1.88 µM
54 | Nc1n[nH]c2cccc(C#Cc3cccc(C(=O)Nc4ccc(CN5CCOCC5)c(C(F)(F)F)c4)c3)c12 | 1.4 µM | 3.26 µM
55 | COc1ccc(-c2cn[nH]c2-c2cc(OC)c(OC)c(OC)c2)cc1 | 0.0243 µM | 0.226 µM
56 | N[C@@H]1CCCC[C@@H]1N.O=P([O-])([O-])CN(CCN(CP(=O)([O-])[O-])CP(=O)([O-])[O-])CP(=O)([O-])[O-].[Pt+2] | > 25 µM | > 25 µM
57 | CCC(=C/[C@H](C)C/C=C/C(C)=C/[C@@H](C)C(=O)[C@@H](C)[C@H](O)[C@@H](C)CC)/C=C/[C@H]1OC(=O)C=C[C@@H]1C | < 0.01 µM | 0.0342 µM
58 | COc1ccc(OC)c(N2CC(N)C2=O)c1 (stereo not given) |  | > 100 µM
59 | Nc1ccccc1SC(CC(=O)c1ccccc1)c1cccc([N+](=O)[O-])c1 (stereo not given) | 15.4 µM | 29 µM
60 | O=C1CCCCN1c1ccccc1C#C/C=C\C#Cc1ccccc1C(F)(F)F | 2.75 µM | 12.7 µM
61 | O=C(/C=C/c1ccc([N+](=O)[O-])cc1)c1ccc(NCc2nc3ccccc3[nH]2)cc1 |  | 16.3 µM
62 | CN1CC[C@@H](NC(=O)Nc2ccc(C#N)cc2)C[C@@H]1c1nc2ccccc2[nH]1 | > 57.7 µM | > 100 µM
63 | CN(C)CC1CC/C(=C\c2ccc(O)cc2)C1=O (stereo not given) |  | 20.4 µM
64 | O=c1ccc2ccccc2cc1[O-].O=c1ccc2ccccc2cc1[O-].[O]=[U+2]=[O] | 4.99 µM | 29.4 µM
65 | Cc1ccc(-n2c3nc(=O)[nH]c(=O)c-3cc3cc([N+](=O)[O-])ccc32)cc1 | 16 µM | 36.8 µM
66 | O=C1NC(=NC(CO)Cc2ccccc2)S/C1=C\c1ccc2ncccc2c1 (stereo not given) | > 25 µM and 5.17 µM | > 25 µM and 12.3 µM
67 | COC(=O)C(CCCN1C(=O)c2ccccc2C1=O)C(=O)OC |  | > 100 µM
68 | COc1cc(/C(C#N)=C/c2nc3c(N4CCOCC4)nc(Cl)nc3n2C)cc(OC)c1OC | < 0.01 µM | 0.0268 µM
69 | Cc1nnc(NC(=O)c2nc(S(=O)(=O)Cc3ccc(F)cc3)ncc2Cl)s1 | 17 µM | 31.4 µM
70 | CC(C)[C@@H]1C=C2CC[C@H]3[C@](C)(CN)CCC[C@]3(C)[C@H]2CC1 | 13.1 µM | 25.8 µM
